Measured values from PubChem BioAssay (NCI).
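Five compound concentrations were applied to cells in 96-well plates for 48 hours; endpoints were derived by simple linear interpolation of the resulting dose-response curve. GI50 marks 50% less growth. The concentration for full growth arrest is given as TGI.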

How the values were obtained:
Assay in all cases: NCI tumour cell line growth inhibition, 48 h
LOX IMVI melanoma = system: LOX IMVI melanoma
T-47D breast = system: T-47D breast
MALME-3M melanoma = system: MALME-3M melanoma
IGROV1 ovarian = system: IGROV1 ovarian
SF-268 CNS = system: SF-268 CNS
NCI-H23 lung = system: NCI-H23 lung
SK-MEL-5 melanoma = system: SK-MEL-5 melanoma
SNB-19 CNS = system: SNB-19 CNS
A498 renal = system: A498 renal
HT29 colon = system: HT29 colon

| SMILES | GI50 (LOX IMVI melanoma) [µM] | TGI (LOX IMVI melanoma) [µM] | GI50 (T-47D breast) [µM] | TGI (T-47D breast) [µM] | GI50 (MALME-3M melanoma) [µM] | TGI (MALME-3M melanoma) [µM] | GI50 (IGROV1 ovarian) [µM] | TGI (IGROV1 ovarian) [µM] | GI50 (SF-268 CNS) [µM] | TGI (SF-268 CNS) [µM] | GI50 (NCI-H23 lung) [µM] | TGI (NCI-H23 lung) [µM] | GI50 (SK-MEL-5 melanoma) [µM] | TGI (SK-MEL-5 melanoma) [µM] | GI50 (SNB-19 CNS) [µM] | TGI (SNB-19 CNS) [µM] | GI50 (A498 renal) [µM] | TGI (A498 renal) [µM] | GI50 (HT29 colon) [µM] | TGI (HT29 colon) [µM] |
| --- | --- | --- | --- | --- | --- | --- | --- | --- | --- | --- | --- | --- | --- | --- | --- | --- | --- | --- | --- | --- |
| Cc1ccc2c[c]1[Hg][CH2]COS2(=O)=O | 18.5 | 36.4 | 15 | 29.7 | 19.8 | 34 | 5.3 | 20.7 | 18 | 32.4 | 23.4 | 49.2 | 16.7 | 30.3 | > 100 | > 100 | 15.8 | 29.3 | 17.9 | 31.8 |
| COc1cc([C@@H]2c3cc4c(cc3C(Br)[C@H]3COC(=O)[C@H]23)OCO4)cc(OC)c1OC (stereo partly drawn) | 0.264 | > 100 | > 100 | > 100 | 51.3 | > 100 | 0.291 | > 65.9 | 0.399 | > 100 | 0.321 | > 100 | 0.209 | 0.488 | 0.553 | > 100 | 0.0257 | 0.177 | 0.289 | 2.85 |
| Cc1cc(=O)c2cc(N=Cc3ccc([N+](=O)[O-])o3)ccc2o1 |  | > 100 |  | > 100 |  | > 100 |  | > 100 |  | > 100 |  | > 100 |  | > 100 |  | > 100 |  | > 100 |  | > 100 |
| CN(C)C(=S)NN=C(c1ccccn1)c1ccccn1 | < 0.01 | 11.5 |  | > 44.9 | < 0.0331 | 0.503 | < 0.01 | 21.8 | < 0.0362 | > 43.4 | < 0.01 | 16.3 | 0.0629 | 3.45 | 3.13 | > 100 | 0.191 | 12.1 | < 0.01 | > 100 |
| COC(=O)Nc1nc2ccc(Oc3ccc(NC(=O)Nc4cccc(Br)c4)cc3)cc2[nH]1 | 2.32 | > 11.9 | 2.17 | > 16.7 | 1.41 | 9.14 | 3.69 | 11.8 | 3.98 | > 25 | 3.23 | > 17.1 | 0.948 | 11.9 | 8.31 | > 25 | 2.1 | 17.4 | 0.7 | 3.28 |
| CN(C)c1ccc(C(=O)c2ccc(N(C)C)c(N)c2)cc1N | 7.75 | > 100 | 4.3 | > 46.1 |  | > 100 | 1.86 | > 42.5 | 10.2 | > 100 | 9.75 | > 80.8 | 2.7 | 34.2 | 16.7 | > 39.3 | 1.03 | 18.1 | 1.14 | 19.2 |
| COc1cc2c(cc1OCCCOC1=C=C=C(c3ccc4c(c3)c3cc(-c5ccc(OCCCOc6cc7c(cc6OC)C(=O)N6CCC[C@H]6C=N7)cc5)ccc3n4S(=O)(=O)c3ccc(C)cc3)C=C1)N=C[C@@H]1CCCN1C2=O | 1.49 | 7.51 | 1.3 | 19.1 | 3.26 | 10.2 | 1.8 | 8.69 | 0.934 | 2.85 | 2.57 | 24.2 | 4.26 | 11.1 | 3.5 | 38.7 | 3.14 | 9.06 | 1.44 | > 20.5 |
| NC(=O)C(Br)CBr (stereo not drawn) | 1.98 | 5.93 | 1.76 | 6.4 | 1.91 | 4.53 | 1.59 | 4.78 | 2.65 | 8.29 | 1.74 | 3.42 | 4.08 | 14.3 | 15.5 | 29.6 | 15.3 | 29 | 1.59 | 9.42 |
| CC/C=C\C/C=C\C[C@H](O)C/C=C1/C(=O)C=C[C@H]1C/C=C\CCC(=O)OC | 1.36 | 2.85 | 2.93 | > 8.25 | 2.2 | > 8.25 | > 8.25 | > 8.25 | 3.04 | > 8.25 | 2.06 | 6.67 | 1.94 | 6.21 | 7.76 | > 8.25 | > 8.25 | > 8.25 | 2.68 | 6.79 |
| Cc1ccccc1S(=O)(=O)N1[C@H](c2ccc(Cl)cc2)C(C(=O)N[C@@H](Cc2ccccc2)C(N)=O)=C[C@@H]1C(C)(C)C | 6.98 | 14 | 5 | 20.2 | 10.2 | 20.1 | 9.57 | 23.1 | 6.56 | 16.4 | 8.05 | 17.6 | 6.8 | 13.5 | 6.07 | 17.3 | 7.3 | 14.4 | 3.49 | 10 |
| C[C@@H]1COCCN1c1nc(-c2cnc(N)cc2C(F)F)nc(N2[C@H](C)COC[C@@H]2C)n1 | 0.206 | 11.3 | 0.0422 | 0.644 | 0.0875 | 0.867 | 0.0845 | 1.77 | 0.356 | 16.1 | 0.267 | 15.7 | 0.307 | 2.03 | 0.405 | 14.4 | 0.0507 | 0.345 | 0.349 | 12.9 |
| Nc1nc2c(c3ncccc13)C(c1ccc(Cl)c(Cl)c1)Cc1ncccc1-2 (stereo not drawn) | 4.4 | 16.2 | 2.39 | 13.4 | 8.94 | 26.3 | 7.83 | 28.1 | 5.14 | 23.4 | 5.59 | 21.6 | 3.99 | 14.8 | 3.77 | 14.4 | 1.93 | 5.85 | 3.22 | 11.9 |
| O=C1c2ccccc2-c2c1c1ccc([N+](=O)[O-])cc1c(=O)n2CCNCCCNCCn1c2c(c3ccc([N+](=O)[O-])cc3c1=O)C(=O)c1ccccc1-2 | 0.0791 | 2.55 | 2.07 | 11.3 | 0.626 | 30.8 | 0.0249 | 4.38 | 0.0881 | 12.5 | 0.0682 | 6.97 | 0.347 | 7.51 | 0.126 | 4.94 | 1.82 | 19.1 | 0.0105 | 5.52 |
| C=C(C)C(=O)OC1CC2(C)OC2CC(OC(C)=O)/C(C)=C/C2OC(=O)C(=C)C21 (stereo not drawn) |  | 7.67 |  | 14.4 |  | 3.23 |  | 18.6 |  | 15.3 |  | 19.4 |  | 21.1 |  | 28.7 |  | 26.4 |  | 6.98 |
| CC1=C(C(=O)Nc2ccc3[nH]ncc3c2)C(c2ccc(F)cc2)NC(=O)N1 (stereo not drawn) | > 25 | > 25 | > 25 | > 25 | > 25 | > 25 | > 25 | > 25 | 23.4 | > 25 | > 25 | > 25 | > 25 | > 25 | > 25 | > 25 | > 14.6 | > 25 | > 25 | > 25 |
| N#Cc1c2ccccc2c2n1-c1ccccc1OC(c1ccccc1)C2=O (stereo not drawn) | 2.45 | 6.82 | 3.28 | 15.6 | 11.7 | 30.6 | 4.37 | 19.2 | 3.73 | 19.7 | 2.95 | 15 | 1.86 | 3.87 | 4.25 | > 100 | 1.84 | 6.89 | 4.1 | 14 |
| N#Cc1cccc(C(=O)c2cnn(-c3ccc(F)cc3)c2N)c1 | > 25 | > 25 | > 25 | > 25 | > 25 | > 25 | > 25 | > 25 | > 25 | > 25 | > 25 | > 25 | > 25 | > 25 | > 25 | > 25 | > 25 | > 25 | > 25 | > 25 |
| O=[N+]([O-])c1cc(O)c(O)cc1-c1cn2ccsc2n1 | 52 | > 100 | > 100 | > 100 | > 100 | > 100 | 32.4 | > 100 | 66.1 | > 100 | 67.5 | > 100 | 16.3 | 54.8 | 91.1 | > 100 | 25.3 | 62.3 | 28.7 | > 100 |
| O=C(Nc1ncc(Cc2ccccc2)s1)c1ccc2c(c1)OCCCO2 | 0.323 | > 100 | 0.541 | > 100 | 0.882 | > 100 | 0.88 | > 100 | 1.92 | > 100 | 2.43 | > 100 | 0.424 | 1.96 | 1 | > 100 | 0.282 | 3.03 | 0.361 | > 100 |
| O=C(Nc1ccc(Cl)cc1)c1cc2c(cc1O)[nH]c1ccccc12 | 3.48 | 13.1 | 2.37 | 6.78 | 2.45 | 5.76 | 4.31 | 18.7 | 3.92 | 14.7 | 2.54 | 9.68 | 1.74 | 3.41 | 3.43 | 30.6 | 2.56 | 7.29 | 5.08 | 17.9 |
| NC1C2C(CC(=O)O)OCC=C3CN4CCC1(C(=O)C(=O)O)C4CC32 (stereo not drawn) |  | > 100 |  | > 100 |  | > 100 |  | > 100 |  | > 100 |  | > 100 |  | > 100 |  | > 100 |  | > 100 |  | > 100 |
| CCN(CC)CCOc1ccc(Nc2ncc3cc(-c4c(Cl)cccc4Cl)c(=O)n(CCOC)c3n2)cc1 | 0.0318 | 0.153 | 0.133 | 16.5 | 0.39 | 3.95 | 0.0138 | 0.0983 | 0.145 | 1.29 | 0.806 | 3.95 | 1.51 | 5.94 | 0.458 | 6.01 | 0.0235 | 0.16 | 0.105 | 2.27 |
| CCc1ccc(-c2ccc(=O)n(-c3ccc(S(N)(=O)=O)cc3)n2)cc1 | 11.7 | > 100 | 3.85 | > 100 | 0.371 | 23.1 | 3.32 | > 77.6 | 9.06 | > 69.3 | 11.9 | > 100 | 0.659 | > 27.6 | 5.21 | 40.1 | 8.86 | > 61.4 | 0.484 | > 100 |
| COc1ccc(Nc2ccnc(NCCNc3ccnc4cc(Cl)ccc34)n2)cc1 | 1.44 | 2.96 | 1.61 | 5.72 | 1.93 | 3.87 | 1.99 | 11 | 3.65 | 15.6 | 2.75 | 14.9 | 1.55 | 2.95 | 2.86 | 12 | 0.874 | 4.92 | 0.546 | 8.28 |
| OCc1cccc(-c2ccc3ncc(-c4nc(NC5CC5)ncc4F)n3c2)c1 | 0.118 | 1.21 | 0.274 | 3.93 | 0.375 | 1.06 | 0.227 | 1.32 | 0.275 | 0.801 | 0.281 | 1.19 | 0.275 | 0.821 | 0.323 | 4.18 | 0.152 | 0.367 | 0.329 | > 100 |
| CCON=C1C(C)(C)C(C)(C)C(C)(C)C1(C)C |  | > 100 |  | > 100 |  | > 100 |  | > 100 |  | > 100 |  | > 100 |  | > 100 |  | > 100 |  | > 100 |  | > 100 |
